Our source for the IC50 values is patent US9340590B2 (priority 2011, dated 2016).

Like-named read-outs stand apart in the source and are kept apart here. Positions of bridges follow the written chain, without caps; N, C: chain ends. Non-standard residues stand in square brackets, D forms with d. Residues, ends and D or L forms follow the SMILES beside them. Cha = N[C@@H](CC1CCCCC1)C(=O)O

What all share (assay): cell-based
One test deals with hNav1.3 (Homo sapiens, UniProt Q9NY46). As to conditions: IonWorks Quattro, use-dependent protocol, hNav1.3; read-out: IWQ Use Nav1.3.
In a further test the target is hNav1.5 (Homo sapiens, UniProt Q14524).
Another test addresses hNav1.7 (Homo sapiens, UniProt Q15858). Format: cell-based.
[1] abbreviates: IonWorks Quattro, use-dependent protocol, hNav1.5, read-out: IWQ Use Nav1.5.
The mark [2] stands for this setting: IonWorks Quattro, use-dependent protocol, hNav1.7, read-out: IWQ Use Nav1.7.

Sequence of hNav1.3 (Q9NY46 whole entry, looked up): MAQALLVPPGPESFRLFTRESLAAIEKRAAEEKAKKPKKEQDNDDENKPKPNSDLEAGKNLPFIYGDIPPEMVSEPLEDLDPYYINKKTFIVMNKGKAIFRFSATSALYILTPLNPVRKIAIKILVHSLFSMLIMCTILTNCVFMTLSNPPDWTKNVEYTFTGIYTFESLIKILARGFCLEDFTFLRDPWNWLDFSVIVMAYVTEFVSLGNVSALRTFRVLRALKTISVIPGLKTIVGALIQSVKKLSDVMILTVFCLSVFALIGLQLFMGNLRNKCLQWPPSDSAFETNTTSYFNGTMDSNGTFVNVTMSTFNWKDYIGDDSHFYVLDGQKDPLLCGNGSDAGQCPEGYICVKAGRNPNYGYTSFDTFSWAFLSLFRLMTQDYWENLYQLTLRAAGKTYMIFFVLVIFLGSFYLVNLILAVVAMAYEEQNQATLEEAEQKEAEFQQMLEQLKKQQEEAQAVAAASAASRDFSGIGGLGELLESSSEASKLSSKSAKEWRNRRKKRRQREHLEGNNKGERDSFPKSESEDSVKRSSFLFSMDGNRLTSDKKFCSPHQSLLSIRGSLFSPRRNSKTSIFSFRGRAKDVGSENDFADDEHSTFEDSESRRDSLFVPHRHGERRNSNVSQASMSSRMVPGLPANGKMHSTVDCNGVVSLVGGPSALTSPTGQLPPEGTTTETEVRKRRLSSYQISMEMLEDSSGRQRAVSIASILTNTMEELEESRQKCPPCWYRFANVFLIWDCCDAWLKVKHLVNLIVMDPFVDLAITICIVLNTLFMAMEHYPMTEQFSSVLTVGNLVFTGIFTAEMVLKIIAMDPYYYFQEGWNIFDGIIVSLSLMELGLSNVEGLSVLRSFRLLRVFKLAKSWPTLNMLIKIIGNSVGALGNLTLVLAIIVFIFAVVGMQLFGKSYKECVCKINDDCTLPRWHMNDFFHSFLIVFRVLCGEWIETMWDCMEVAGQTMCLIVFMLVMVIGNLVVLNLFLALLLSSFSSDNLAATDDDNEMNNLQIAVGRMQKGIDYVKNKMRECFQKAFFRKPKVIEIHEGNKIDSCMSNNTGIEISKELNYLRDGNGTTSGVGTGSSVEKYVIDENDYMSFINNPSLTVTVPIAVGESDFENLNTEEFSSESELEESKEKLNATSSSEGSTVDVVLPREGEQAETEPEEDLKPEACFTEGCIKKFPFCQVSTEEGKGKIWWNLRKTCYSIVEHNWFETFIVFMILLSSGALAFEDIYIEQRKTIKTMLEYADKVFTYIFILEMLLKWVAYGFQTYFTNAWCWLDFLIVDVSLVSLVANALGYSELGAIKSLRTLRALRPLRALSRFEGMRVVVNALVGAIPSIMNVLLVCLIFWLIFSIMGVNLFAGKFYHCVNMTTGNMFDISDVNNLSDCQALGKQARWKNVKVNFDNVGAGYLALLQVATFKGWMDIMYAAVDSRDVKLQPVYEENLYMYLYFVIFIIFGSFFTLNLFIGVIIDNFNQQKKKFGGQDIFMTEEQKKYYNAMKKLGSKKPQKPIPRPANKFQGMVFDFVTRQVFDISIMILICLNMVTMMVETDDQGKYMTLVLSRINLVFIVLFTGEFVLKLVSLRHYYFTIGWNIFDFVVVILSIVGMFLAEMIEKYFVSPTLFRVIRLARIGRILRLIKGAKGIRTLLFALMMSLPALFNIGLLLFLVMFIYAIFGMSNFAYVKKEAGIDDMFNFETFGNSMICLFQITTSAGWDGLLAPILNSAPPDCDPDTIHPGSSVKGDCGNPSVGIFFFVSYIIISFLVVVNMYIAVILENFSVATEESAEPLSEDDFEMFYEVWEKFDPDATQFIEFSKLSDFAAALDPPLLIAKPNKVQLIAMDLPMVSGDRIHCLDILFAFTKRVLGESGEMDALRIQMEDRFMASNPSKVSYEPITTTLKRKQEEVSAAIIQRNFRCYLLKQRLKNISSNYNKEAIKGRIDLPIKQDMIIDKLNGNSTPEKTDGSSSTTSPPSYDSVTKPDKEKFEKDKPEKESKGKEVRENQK
Sequence of hNav1.5 (Q14524 whole entry, looked up): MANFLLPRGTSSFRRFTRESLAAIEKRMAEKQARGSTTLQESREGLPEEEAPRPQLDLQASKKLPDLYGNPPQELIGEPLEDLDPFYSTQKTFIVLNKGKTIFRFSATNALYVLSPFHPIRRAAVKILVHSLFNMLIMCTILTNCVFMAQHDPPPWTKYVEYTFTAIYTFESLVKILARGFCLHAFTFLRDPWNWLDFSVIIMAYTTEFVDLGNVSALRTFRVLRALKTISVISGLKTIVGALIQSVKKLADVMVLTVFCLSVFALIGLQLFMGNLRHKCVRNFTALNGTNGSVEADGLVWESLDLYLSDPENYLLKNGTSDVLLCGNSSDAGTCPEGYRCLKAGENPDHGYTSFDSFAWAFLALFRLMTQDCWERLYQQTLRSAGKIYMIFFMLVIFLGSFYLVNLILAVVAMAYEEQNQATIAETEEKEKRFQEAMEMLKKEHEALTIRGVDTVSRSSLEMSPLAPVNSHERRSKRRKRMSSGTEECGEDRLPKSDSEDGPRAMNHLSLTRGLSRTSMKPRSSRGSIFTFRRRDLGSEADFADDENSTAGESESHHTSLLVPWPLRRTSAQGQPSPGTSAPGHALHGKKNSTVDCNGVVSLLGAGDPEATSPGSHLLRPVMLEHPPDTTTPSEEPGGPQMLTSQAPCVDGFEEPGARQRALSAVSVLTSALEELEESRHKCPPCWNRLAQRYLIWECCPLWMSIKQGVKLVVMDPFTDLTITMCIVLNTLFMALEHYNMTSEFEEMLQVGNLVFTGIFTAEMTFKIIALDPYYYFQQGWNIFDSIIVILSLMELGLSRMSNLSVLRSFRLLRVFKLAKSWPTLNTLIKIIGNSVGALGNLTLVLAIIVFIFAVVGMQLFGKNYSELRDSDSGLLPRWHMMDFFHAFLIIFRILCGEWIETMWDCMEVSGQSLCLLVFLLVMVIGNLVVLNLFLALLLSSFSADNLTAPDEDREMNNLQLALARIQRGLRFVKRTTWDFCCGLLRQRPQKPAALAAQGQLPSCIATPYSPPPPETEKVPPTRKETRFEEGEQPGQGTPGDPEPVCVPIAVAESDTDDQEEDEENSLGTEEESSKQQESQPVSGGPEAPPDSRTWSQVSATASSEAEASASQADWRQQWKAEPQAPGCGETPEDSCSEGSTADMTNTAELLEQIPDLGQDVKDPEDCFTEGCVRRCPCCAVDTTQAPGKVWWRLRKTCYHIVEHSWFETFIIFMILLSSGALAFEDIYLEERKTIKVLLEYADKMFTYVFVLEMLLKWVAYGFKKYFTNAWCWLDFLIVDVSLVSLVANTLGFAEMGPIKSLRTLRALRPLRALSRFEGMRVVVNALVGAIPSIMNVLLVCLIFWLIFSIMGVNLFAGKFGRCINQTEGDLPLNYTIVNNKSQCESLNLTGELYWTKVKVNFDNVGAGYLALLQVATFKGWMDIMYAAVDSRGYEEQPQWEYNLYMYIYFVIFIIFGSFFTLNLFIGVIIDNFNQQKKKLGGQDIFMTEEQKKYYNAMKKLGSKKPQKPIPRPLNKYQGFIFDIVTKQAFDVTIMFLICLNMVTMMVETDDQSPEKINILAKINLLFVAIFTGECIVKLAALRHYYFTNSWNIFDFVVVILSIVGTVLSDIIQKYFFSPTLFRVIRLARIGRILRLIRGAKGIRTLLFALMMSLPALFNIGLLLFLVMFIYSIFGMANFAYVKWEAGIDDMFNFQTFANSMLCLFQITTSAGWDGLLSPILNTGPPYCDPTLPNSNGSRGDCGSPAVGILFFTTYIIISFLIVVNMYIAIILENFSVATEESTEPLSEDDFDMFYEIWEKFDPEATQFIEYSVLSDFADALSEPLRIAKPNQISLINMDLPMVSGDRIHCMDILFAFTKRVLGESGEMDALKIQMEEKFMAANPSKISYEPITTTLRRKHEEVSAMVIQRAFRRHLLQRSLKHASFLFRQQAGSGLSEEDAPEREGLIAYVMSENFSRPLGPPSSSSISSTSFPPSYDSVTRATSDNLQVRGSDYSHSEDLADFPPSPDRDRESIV

For the molecule `CC[C@H](C)[C@@H]1NC(=O)[C@@H]2CSSC[C@@H]3NC(=O)[C@H](C(C)C)NC(=O)[C@H](CC(C)C)NC(=O)[C@H](CC(N)=O)NC(=O)[C@@H]4CCCN4C(=O)[C@H](CCCNC(=N)N)NC(=O)[C@H](CSSC[C@H](NC(=O)[C@@H](N)CC(=O)O)C(=O)N[C@@H](CC(C)C)C(=O)NCC(=O)N(C)[C@@H](Cc4ccccc4)C(=O)N[C@@H](CC(C)C)C(=O)N[C@@H](CCCNC(=N)N)C(=O)N[C@@H](CCCCN)C(=O)N2)NC(=O)[C@H](CSSC[C@@H](C(=O)N[C@@H](CCCCN)C(=O)N[C@@H](Cc2ccc(O)cc2)C(=O)N[C@H](C(=O)N[C@@H](Cc2ccccc2)C(N)=O)C(C)C)NC(=O)[C@H](Cc2c[nH]c4ccccc24)NC(=O)[C@H](CCCCN)NC(=O)[C@H](Cc2c[nH]cn2)NC(=O)[C@H]([C@@H](C)O)NC(=O)[C@H](CCCNC(=N)N)NC(=O)[C@H](CO)NC3=O)NC(=O)[C@H](CCCCN)NC(=O)[C@H](CC(=O)O)NC(=O)[C@H](CC(N)=O)NC(=O)[C@H](CC(=O)O)NC(=O)[C@@H]2CCCN2C1=O` [compound 674], the IC50 on hNav1.3 was 310 nM; on hNav1.5 (setting [1]) it was above 5000 nM; at hNav1.7 (setting [2]), 240 nM.

For the molecule `CC[C@H](C)[C@@H]1NC(=O)[C@@H]2CSSC[C@@H]3NC(=O)[C@H](C(C)C)NC(=O)[C@H](CC(C)C)NC(=O)[C@H](CC(N)=O)NC(=O)[C@@H]4CCCN4C(=O)[C@H](CCCNC(=N)N)NC(=O)[C@H](CSSC[C@H](NC(=O)[C@@H](N)CC(=O)O)C(=O)N[C@@H](CC(C)C)C(=O)NCC(=O)N[C@@H](Cc4ccccc4Cl)C(=O)N[C@@H](CC(C)C)C(=O)N[C@@H](CCCNC(=N)N)C(=O)N[C@@H](CCCCN)C(=O)N2)NC(=O)[C@H](CSSC[C@@H](C(=O)N[C@@H](CCCCN)C(=O)N[C@@H](Cc2ccc(O)cc2)C(=O)N[C@H](C(=O)N[C@@H](Cc2ccccc2)C(N)=O)C(C)C)NC(=O)[C@H](Cc2c[nH]c4ccccc24)NC(=O)[C@H](CCCCN)NC(=O)[C@H](Cc2c[nH]cn2)NC(=O)[C@H]([C@@H](C)O)NC(=O)[C@H](CCCNC(=N)N)NC(=O)[C@H](CO)NC3=O)NC(=O)[C@H](CCCCN)NC(=O)[C@H](CC(=O)O)NC(=O)[C@H](CC(N)=O)NC(=O)[C@H](CC(=O)O)NC(=O)[C@@H]2CCCN2C1=O` [compound 675], the IC50 at hNav1.3 is 72 nM; on hNav1.5 (setting [1]) it was above 5000 nM; on hNav1.7 (setting [2]) it was 66 nM.

As for `CC[C@H](C)[C@@H]1NC(=O)[C@@H]2CSSC[C@@H]3NC(=O)[C@H](C(C)C)NC(=O)[C@H](CC(C)C)NC(=O)[C@H](CC(N)=O)NC(=O)[C@@H]4CCCN4C(=O)[C@H](CCCNC(=N)N)NC(=O)[C@H](CSSC[C@H](NC(=O)[C@@H](N)CC(=O)O)C(=O)N[C@@H](CC(C)C)C(=O)NCC(=O)N[C@@H](CCc4ccccc4)C(=O)N[C@@H](CC(C)C)C(=O)N[C@@H](CCCNC(=N)N)C(=O)N[C@@H](CCCCN)C(=O)N2)NC(=O)[C@H](CSSC[C@@H](C(=O)N[C@@H](CCCCN)C(=O)N[C@@H](Cc2ccc(O)cc2)C(=O)N[C@H](C(=O)N[C@@H](Cc2ccccc2)C(N)=O)C(C)C)NC(=O)[C@H](Cc2c[nH]c4ccccc24)NC(=O)[C@H](CCCCN)NC(=O)[C@H](Cc2c[nH]cn2)NC(=O)[C@H]([C@@H](C)O)NC(=O)[C@H](CCCNC(=N)N)NC(=O)[C@H](CO)NC3=O)NC(=O)[C@H](CCCCN)NC(=O)[C@H](CC(=O)O)NC(=O)[C@H](CC(N)=O)NC(=O)[C@H](CC(=O)O)NC(=O)[C@@H]2CCCN2C1=O` [compound 676], the IC50 at hNav1.3 is 61 nM; at hNav1.5 (setting [1]), above 5000 nM; on hNav1.7 (setting [2]), 16 nM.

With `CCCCCCCC[C@@H]1NC(=O)CNC(=O)[C@H](CC(C)C)NC(=O)[C@@H](NC(=O)[C@@H](N)CC(=O)O)CSSC[C@@H]2NC(=O)[C@@H]3CSSC[C@@H](C(=O)N[C@@H](CCCCN)C(=O)N[C@@H](Cc4ccc(O)cc4)C(=O)N[C@H](C(=O)N[C@@H](Cc4ccccc4)C(N)=O)C(C)C)NC(=O)[C@H](Cc4c[nH]c5ccccc45)NC(=O)[C@H](CCCCN)NC(=O)[C@H](Cc4c[nH]cn4)NC(=O)[C@H]([C@@H](C)O)NC(=O)[C@H](CCCNC(=N)N)NC(=O)[C@H](CO)NC(=O)[C@H](CSSC[C@H](NC(=O)[C@H](CCCCN)NC(=O)[C@H](CCCNC(=N)N)NC(=O)[C@H](CCSC)NC1=O)C(=O)N[C@@H]([C@@H](C)CC)C(=O)N1CCC[C@H]1C(=O)N[C@@H](CC(=O)O)C(=O)N[C@@H](CC(N)=O)C(=O)N[C@@H](CC(=O)O)C(=O)N[C@@H](CCCCN)C(=O)N3)NC(=O)[C@H](C(C)C)NC(=O)[C@H](CC(C)C)NC(=O)[C@H](CC(N)=O)NC(=O)[C@@H]1CCCN1C(=O)[C@H](CCCNC(=N)N)NC2=O` [compound 677], the values for the IC50 on hNav1.3, against hNav1.5 (IWQ Use Nav1.5) and at hNav1.7 (setting [2]) were 170 nM, above 5000 nM and 170 nM, respectively.

Consider `CC[C@H](C)[C@@H]1NC(=O)[C@@H]2CSSC[C@@H]3NC(=O)[C@H](C(C)C)NC(=O)[C@H](CC(C)C)NC(=O)[C@H](CC(N)=O)NC(=O)[C@@H]4CCCN4C(=O)[C@H](CCCNC(=N)N)NC(=O)[C@H](CSSC[C@H](NC(=O)[C@@H](N)CC(=O)O)C(=O)N[C@@H](CC(C)C)C(=O)NCC(=O)N[C@@H](C(C)(C)C)C(=O)N[C@@H](CCSC)C(=O)N[C@@H](CCCNC(=N)N)C(=O)N[C@@H](CCCCN)C(=O)N2)NC(=O)[C@H](CSSC[C@@H](C(=O)N[C@@H](CCCCN)C(=O)N[C@@H](Cc2ccc(O)cc2)C(=O)N[C@H](C(=O)N[C@@H](Cc2ccccc2)C(N)=O)C(C)C)NC(=O)[C@H](Cc2c[nH]c4ccccc24)NC(=O)[C@H](CCCCN)NC(=O)[C@H](Cc2cnc[nH]2)NC(=O)[C@H]([C@@H](C)O)NC(=O)[C@H](CCCNC(=N)N)NC(=O)[C@H](CO)NC3=O)NC(=O)[C@H](CCCCN)NC(=O)[C@H](CC(=O)O)NC(=O)[C@H](CC(N)=O)NC(=O)[C@H](CC(=O)O)NC(=O)[C@@H]2CCCN2C1=O` [compound 678], for which the IC50 at hNav1.3 is 1360 nM; on hNav1.5 (IWQ Use Nav1.5), above 5000 nM; on hNav1.7 (setting [2]), 700 nM.

As to `CC[C@H](C)[C@@H]1NC(=O)[C@@H]2CSSC[C@@H]3NC(=O)[C@H](C(C)C)NC(=O)[C@H](CC(C)C)NC(=O)[C@H](CC(N)=O)NC(=O)[C@@H]4CCCN4C(=O)[C@H](CCCNC(=N)N)NC(=O)[C@H](CSSC[C@H](NC(=O)[C@@H](N)CC(=O)O)C(=O)N[C@@H](CC(C)C)C(=O)NCC(=O)N[C@@H](CCC(C)C)C(=O)N[C@@H](CCSC)C(=O)N[C@@H](CCCNC(=N)N)C(=O)N[C@@H](CCCCN)C(=O)N2)NC(=O)[C@H](CSSC[C@@H](C(=O)N[C@@H](CCCCN)C(=O)N[C@@H](Cc2ccc(O)cc2)C(=O)N[C@H](C(=O)N[C@@H](Cc2ccccc2)C(N)=O)C(C)C)NC(=O)[C@H](Cc2c[nH]c4ccccc24)NC(=O)[C@H](CCCCN)NC(=O)[C@H](Cc2c[nH]cn2)NC(=O)[C@H]([C@@H](C)O)NC(=O)[C@H](CCCNC(=N)N)NC(=O)[C@H](CO)NC3=O)NC(=O)[C@H](CCCCN)NC(=O)[C@H](CC(=O)O)NC(=O)[C@H](CC(N)=O)NC(=O)[C@H](CC(=O)O)NC(=O)[C@@H]2CCCN2C1=O` [compound 679], the results for the IC50 on hNav1.3, at hNav1.5 (setting [1]) and on hNav1.7 (setting [2]) were 240 nM, above 5000 nM and 86 nM, respectively.

On to `CC[C@H](C)[C@@H]1NC(=O)[C@@H]2CSSC[C@@H]3NC(=O)[C@H](C(C)C)NC(=O)[C@H](CC(C)C)NC(=O)[C@H](CC(N)=O)NC(=O)[C@@H]4CCCN4C(=O)[C@H](CCCNC(=N)N)NC(=O)[C@H](CSSC[C@H](NC(=O)[C@@H](N)CC(=O)O)C(=O)N[C@@H](CC(C)C)C(=O)NCC(=O)N[C@@H](CC4CCCCC4)C(=O)N[C@@H](Cc4ccccc4)C(=O)N[C@@H](CCCNC(=N)N)C(=O)N[C@@H](CCCCN)C(=O)N2)NC(=O)[C@H](CSSC[C@@H](C(=O)N[C@@H](CCCCN)C(=O)N[C@@H](Cc2ccc(O)cc2)C(=O)N[C@H](C(=O)N[C@@H](Cc2ccccc2)C(N)=O)C(C)C)NC(=O)[C@H](Cc2c[nH]c4ccccc24)NC(=O)[C@H](CCCCN)NC(=O)[C@H](Cc2c[nH]cn2)NC(=O)[C@H]([C@@H](C)O)NC(=O)[C@H](CCCNC(=N)N)NC(=O)[C@H](CO)NC3=O)NC(=O)[C@H](CCCCN)NC(=O)[C@H](CC(=O)O)NC(=O)[C@H](CC(N)=O)NC(=O)[C@H](CC(=O)O)NC(=O)[C@@H]2CCCN2C1=O` [compound 680] (H-DCLG[Cha]FRKCIPDNDKCCRPNLVCSRTHKWCKYVF-NH2; disulfide 2-17, 9-23, 16-30), for which the IC50 at hNav1.3 amounted to 32 nM; at hNav1.5 (setting [1]), 3500 nM; against hNav1.7, 19 nM.

As for `CC[C@H](C)[C@@H]1NC(=O)[C@@H]2CSSC[C@@H]3NC(=O)[C@H](C(C)C)NC(=O)[C@H](CC(C)C)NC(=O)[C@H](CC(N)=O)NC(=O)[C@@H]4CCCN4C(=O)[C@H](CCCNC(=N)N)NC(=O)[C@H](CSSC[C@H](NC(=O)[C@@H](N)CC(=O)O)C(=O)N[C@@H](CC(C)C)C(=O)NCC(=O)N[C@@H](CC4CCCCC4)C(=O)N[C@@H](CC(C)C)C(=O)N[C@@H](CCCNC(=N)N)C(=O)N[C@@H](CCCCN)C(=O)N2)NC(=O)[C@H](CSSC[C@@H](C(=O)N[C@@H](CCCCN)C(=O)N[C@@H](Cc2ccc(O)cc2)C(=O)N[C@H](C(=O)N[C@@H](Cc2ccccc2)C(N)=O)C(C)C)NC(=O)[C@H](Cc2c[nH]c4ccccc24)NC(=O)[C@H](CCCCN)NC(=O)[C@H](Cc2c[nH]cn2)NC(=O)[C@H]([C@@H](C)O)NC(=O)[C@H](CCCNC(=N)N)NC(=O)[C@H](CO)NC3=O)NC(=O)[C@H](CCCCN)NC(=O)[C@H](CC(=O)O)NC(=O)[C@H](CC(N)=O)NC(=O)[C@H](CC(=O)O)NC(=O)[C@@H]2CCCN2C1=O` [compound 681], the values for the IC50 at hNav1.3, at hNav1.5 (setting [1]) and at hNav1.7 (setting [2]) were 79 nM, above 5000 nM and 23 nM, respectively.
